From article PMC5082894 (PLoS ONE, 2016)

Experiments:
HIV-1 LAI = assay: MAGI assay, HIV-1 LAI; assay type: cell-based; settings: MAGI cells, 48 h, mean of triplicate ± SD
Method: (§1) Briefly, target cells (HeLa CD4/CCR5-LTR/β-gal; 10^4/well) were plated in 96-well flat microtiter culture plates. […] The test drugs were added initially and viruses were immediately inoculated onto the cells. Forty-eight hours after viral exposure, all blue cells in each well were counted. The cytotoxicity of the compound was determined by the MTT method as previously described. All experiments were performed in triplicate and AZT was used as reference anti-HIV-1 molecule.

HIV-1 NL4-3 = assay: MAGI assay, HIV-1 NL4-3; assay type: cell-based; settings: MAGI cells, 48 h, mean of triplicate ± SD
Method: as §1

[1] = tested on: HeLa CD4/CCR5-LTR/β-gal cells; assay: Cytotoxicity by MTT method (MAGI cells); assay type: cell-based; settings: MTT, mean of triplicate ± SD
Method: as §1

HIV-1 LAI (B-X4) = assay: PBMC antiviral assay (RT activity), HIV-1 LAI; assay type: cell-based; settings: PHA-P-activated PBMCs, 125 TCID50, day 7, RT activity
Method: (§2) In order to confirm antiretroviral activity of the compounds, using a cell model closer to the pathophysiology, Peripheral Blood Mononuclear Cells (PBMCs) were separated from a buffy-coat from healthy HIV-, HCV-, HBV-seronegative blood donors by Ficoll-Hypaque density gradient centrifugation. The PBMCs were activated by incubation with 1 μg/ml phytohemagglutinin-P (PHA-P; Difco Laboratories) for three days in RPMI 1640 medium supplemented with 10% heat-inactivated fetal calf serum (FCS, +56 ◦C for 45 min), 2mM l-glutamine and a 1% antibiotic cocktail (penicillin, streptomycin, neomycin). After this mitogen activation, PBMCs were cultivated in the same culture medium supplemented with recombinant human interleukin-2 (rHuIL-2; 20 IU/mL) and treated and/or infected. […] All these viruses were amplified in vitro with PHA-P-activated blood mononuclear cells and 50% tissue culture infectious doses (TCID50) were calculated using Kärber’s formula [37], after limited-dilution titration. […] Viral replication was measured by quantifying reverse transcriptase (RT) activity in the cell culture supernatants using the Lenti RT Activity Kit (Cavidi) and AZT was used as reference anti-HIV-1 molecule. EC50 were then calculated and expressed in μM.

HIV-1 Ba-L (B-R5) = assay: PBMC antiviral assay (RT activity), HIV-1 Ba-L; assay type: cell-based; settings: PHA-P-activated PBMCs, 125 TCID50, day 7, RT activity
Method: as §2

HIV-1 92UG029 (A-X4) = assay: PBMC antiviral assay (RT activity), HIV-1 92UG029; assay type: cell-based; settings: PHA-P-activated PBMCs, 125 TCID50, day 7, RT activity
Method: as §2

HIV-1 92HT599 (B-X4) = assay: PBMC antiviral assay (RT activity), HIV-1 92HT599; assay type: cell-based; settings: PHA-P-activated PBMCs, 125 TCID50, day 7, RT activity
Method: as §2

[2] = tested on: HIV-1 96USHIPS4 (B-X4/R5); assay: PBMC antiviral assay (RT activity), HIV-1 96USHIPS4; assay type: cell-based; settings: PHA-P-activated PBMCs, 125 TCID50, day 7, RT activity
Method: as §2

HIV-1 98IN017 (C-X4) = assay: PBMC antiviral assay (RT activity), HIV-1 98IN017; assay type: cell-based; settings: PHA-P-activated PBMCs, 125 TCID50, day 7, RT activity
Method: as §2

PBMCs = assay: Cytotoxicity in PBMCs; assay type: cell-based, human; settings: PBMCs

Work on Cc1cn([C@H]2C[C@H](N=[N+]=[N-])[C@@H](CO)O2)c(=O)[nH]c1=O [AZT, reference compound] yielded an EC50 (HIV-1 LAI) of 12 ± 8 nM, an EC50 (HIV-1 NL4-3) of 21 ± 11 nM and a CC50 [1] of over 100000 nM. For the same compound, the EC50 (HIV-1 LAI (B-X4)) was 12 ± 3 nM, the EC50 (HIV-1 Ba-L (B-R5)) was 15 ± 21 nM and the EC50 (HIV-1 92UG029 (A-X4)) was 9 ± 4 nM. The EC50 (HIV-1 92HT599 (B-X4)) was 12 ± 2 nM, the EC50 [2] was 18 ± 10 nM and the EC50 (HIV-1 98IN017 (C-X4)) was 6 ± 2 nM. The CC50 (PBMCs) was over 1000 nM.
